Measurements reported in the supplement of paper PMC11061612.

What was measured:
Experiment in all cases: combination Emax (second highest fraction inhibited in the dose matrix, 72 h); higher = more inhibition; extreme values may be limits of the assay
[1] = test system: ATN-1 (T-Lymphoblastic Leukemia)
How it was run: (§1)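 Cell lines grown in DMEM/F12 or RPMI with 10% FBS were plated in 1536-well plates and held 24 hours at 37°C, 5% CO2 before 72 hours of exposure to two-drug dose matrices, with DMSO typically at 0.2%. CellTiter-Glo 2.0 luminescence gave viability, which was converted to inhibition. Vehicle wells were set to 0 and blank wells to 1. Combination Emax is the second-highest inhibition in the matrix, and Bliss excess is the observed combination effect minus the expected EA + EB − EA·EB, where EA and EB are the single-agent effects.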

[2] = test system: C2BBe1 (Colorectal Carcinoma)
How it was run: as §1

C32 (Melanoma) = test system: C32 (Melanoma)
How it was run: as §1

DK-MG (Glioblastoma) = test system: DK-MG (Glioblastoma)
How it was run: as §1

GCIY (Gastric Carcinoma) = test system: GCIY (Gastric Carcinoma)
How it was run: as §1

[3] = test system: HT-3 (Cervical Carcinoma)
How it was run: as §1

[4] = test system: IGROV-1 (Ovarian Carcinoma)
How it was run: as §1

[5] = test system: JJN-3 (Plasma Cell Myeloma)
How it was run: as §1

[6] = test system: JURL-MK1 (Chronic Myelogenous Leukemia)
How it was run: as §1

[7] = test system: L-363 (Plasma Cell Myeloma)
How it was run: as §1

[8] = test system: MDA-MB-175-VII (Breast Carcinoma)
How it was run: as §1

[9] = test system: MRK-nu-1 (Breast Carcinoma)
How it was run: as §1

[10] = test system: NCI-H1048 (Small Cell Lung Carcinoma)
How it was run: as §1

[11] = test system: NCI-H1975 (Lung Adenocarcinoma)
How it was run: as §1

[12] = test system: NCI-H2009 (Lung Adenocarcinoma)
How it was run: as §1

[13] = test system: NCI-H2023 (Non-Small Cell Lung Carcinoma)
How it was run: as §1

[14] = test system: NTERA-2-cl-D1 (Other Solid Carcinomas)
How it was run: as §1

[15] = test system: OCI-M1 (Acute Myeloid Leukemia)
How it was run: as §1

[16] = test system: RS4-11 (B-Lymphoblastic Leukemia)
How it was run: as §1

[17] = test system: TK (B-Cell Non-Hodgkin's Lymphoma)
How it was run: as §1

SMILES | combination Emax [1] | combination Emax [2] | combination Emax (C32 (Melanoma)) | combination Emax (DK-MG (Glioblastoma)) | combination Emax (GCIY (Gastric Carcinoma)) | combination Emax [3] | combination Emax [4] | combination Emax [5] | combination Emax [6] | combination Emax [7] | combination Emax [8] | combination Emax [9] | combination Emax [10] | combination Emax [11] | combination Emax [12] | combination Emax [13] | combination Emax [14] | combination Emax [15] | combination Emax [16] | combination Emax [17]
CN(C)CCCOc1ccc(-c2ccc3ncc4c(c3c2)n(C2CCOCC2)c(=O)n4C)cn1 [AZD0156] + O=C(c1cc(Cc2n[nH]c(=O)c3ccccc23)ccc1F)N1CCN(C(=O)C2CC2)CC1 [Olaparib] (first compound max 3 µM, partner max 3 µM) | 0.393 | 0.285 | 0.164 | 0.41 | 0.418 | 0.321 | 0.574 | 0.213 | 0.431 | 0.356 | 0.198 | 0.542 | 0.352 | 0.39 | 0.436 | 0.369 | 0.162 | 0.534 | 0.497 | 0.18
COc1nnc2ccc(N3CCC(c4ccc(OCCN5CCN(C)C(=O)[C@H]5C)cc4)CC3)nn12 [AZD5153] + C[C@@H]1COCCN1C2=NC(=NC(=C2)C3(CC3)[S@](=N)(=O)C)C4=C5C=CNC5=NC=C4 [AZD6738] (first compound max 1 µM, 7x7, partner max 10 µM) | 0.984 | 0.579 | 0.606 | 0.624 | 0.794 | 0.601 | 0.843 | 0.964 | 0.998 | 0.849 | 0.529 | 0.814 | 0.678 | 0.737 | 0.645 | 0.7 | 0.832 | 1 | 0.944 | 0.968
CN(CCO)CC[C@H](CSc1ccccc1)Nc1ccc(S(=O)(=O)NC(=O)c2ccc(N3CCC([C@@H](O)c4ccccc4-c4ccc(Cl)cc4)CC3)cc2)cc1S(=O)(=O)C(F)(F)F [AZD4320] + Cn1cnc2c(F)c(Nc3ccc(Br)cc3Cl)c(C(=O)NOCCO)cc21 [Selumetinib] (first compound max 1 µM, 7x7, partner max 3 µM) | 0.732 | 0.587 | 0.975 | 0.336 | 0.658 | 0.257 | 0.612 | 0.731 | 0.999 | 0.212 | 0.598 | 0.562 | 0.992 | 0.417 | 0.606 | 0.268 | 0.987 | 1 | 1 | 0.987
Cn1cnc2c(F)c(Nc3ccc(Br)cc3Cl)c(C(=O)NOCCO)cc21 [Selumetinib] + CCN(CCO)CCCOc1ccc2c(Nc3cc(CC(=O)Nc4cccc(F)c4)[nH]n3)ncnc2c1 [AZD2811] (first compound max 10 µM, 7x7, partner max 1 µM) | 0.734 | 0.484 | 0.999 | 0.38 | 0.371 | 0.367 | 0.665 | 0.551 | 0.994 | 0.116 | 0.485 | 0.548 | 0.611 | 0.423 | 0.676 | 0.275 | 0.382 | 0.841 | 0.937 | 0.262
Cc1c2c(nn1C)CSCc1cc(n(C)n1)CSc1cc(c3ccccc3c1)OCCCc1c(C(=O)O)n(C)c3c-2c(Cl)ccc13 [AZD5991] + Cn1cnc2c(F)c(Nc3ccc(Br)cc3Cl)c(C(=O)NOCCO)cc21 [Selumetinib] (first compound max 1 µM, 7x7, partner max 3 µM) | 0.888 | 0.425 | 1 | 0.689 | 0.465 | 0.789 | 0.734 | 1 | 0.952 | 1 |  | 1 | 0.971 | 0.816 | 0.526 | 0.294 | 0.562 | 0.618 | 0.497 | 0.114
CS(=O)(=O)CCNCc1ccc(-c2ccc3ncnc(Nc4ccc(OCc5cccc(F)c5)c(Cl)c4)c3c2)o1 [Lapatinib] + NC1(c2ccc(-c3nc4ccn5c(=O)[nH]nc5c4cc3-c3ccccc3)cc2)CCC1 [MK-2206] (first compound max 10 µM, 7x7, partner max 10 µM) |  |  | 0.635 |  | 0.934 |  |  | 0.899 |  | 0.912 | 1 | 0.361 |  |  | 0.431 | 0.637 | 0.911 | 0.844 |  | 
COc1nnc2ccc(N3CCC(c4ccc(OCCN5CCN(C)C(=O)[C@H]5C)cc4)CC3)nn12 [AZD5153] + CN(CC[C@H](CSC1=CC=CC=C1)NC2=C(C=C(C=C2)S(=O)(=O)NC(=O)C3=CC=C(C=C3)N4CCC(CC4)[C@H](C5=CC=CC=C5C6=CC=C(C=C6)Cl)O)S(=O)(=O)C(F)(F)F)CCO [AZD4320] (first compound max 1 µM, 7x7, partner max 1 µM) | 0.718 | 0.611 | 0.444 | 0.614 |  | 0.3 | 0.608 | 0.969 | 0.994 |  |  |  | 0.801 | 0.643 |  |  |  | 1 | 1 | 1
CC(=O)c1c(C)c2cnc(Nc3ccc(N4CCNCC4)cn3)nc2n(C2CCCC2)c1=O [Palbociclib] + CN(CC[C@H](CSC1=CC=CC=C1)NC2=C(C=C(C=C2)S(=O)(=O)NC(=O)C3=CC=C(C=C3)N4CCC(CC4)[C@H](C5=CC=CC=C5C6=CC=C(C=C6)Cl)O)S(=O)(=O)C(F)(F)F)CCO [AZD4320] (first compound max 10 µM, 7x7, partner max 1 µM) | 0.772 | 0.318 | 0.209 | 0.389 |  | 0.0805 | 0.793 | 0.388 | 1 |  |  |  | 0.677 | 0.471 |  |  |  | 0.994 | 1 | 0.996
CCc1c2c(nc3ccc(O)cc13)-c1cc3c(c(=O)n1C2)COC(=O)[C@]3(O)CC [SN-38] + O=C(c1cc(Cc2n[nH]c(=O)c3ccccc23)ccc1F)N1CCN(C(=O)C2CC2)CC1 [Olaparib] (first compound max 0.3 µM, 7x7, partner max 10 µM) | 1 |  | 0.664 | 0.259 | 0.779 | 0.979 |  | 0.688 | 1 | 0.421 | 0.649 | 0.868 | 0.987 | 0.545 | 0.442 | 0.857 | 1 |  |  | 
C=CCn1c(=O)c2cnc(Nc3ccc(N4CCN(C)CC4)cc3)nc2n1-c1cccc(C(C)(C)O)n1 [AZD1775] + CCc1c2c(nc3ccc(O)cc13)-c1cc3c(c(=O)n1C2)COC(=O)[C@]3(O)CC [SN-38] (first compound max 1 µM, partner max 0.3 µM) |  |  | 0.69 |  | 0.756 |  |  |  |  | 0.903 | 0.659 | 0.81 |  |  | 0.936 | 0.775 | 0.682 |  |  | 
Cc1c2c(nn1C)CSCc1cc(n(C)n1)CSc1cc(c3ccccc3c1)OCCCc1c(C(=O)O)n(C)c3c-2c(Cl)ccc13 [AZD5991] + Nc1ccn([C@@H]2O[C@H](CO)[C@@H](O)C2(F)F)c(=O)n1 [Gemcitabine] (first compound max 1 µM, 7x7, partner max 0.3 µM) |  |  | 0.762 |  | 0.649 |  |  |  |  | 0.999 | 0.48 | 1 |  |  | 0.487 | 0.612 | 0.536 |  |  | 
C[C@@H](Oc1cc(-c2cnn(C3CCNCC3)c2)cnc1N)c1c(Cl)ccc(F)c1Cl [Crizotinib] + Cn1cnc2c(F)c(Nc3ccc(Br)cc3Cl)c(C(=O)NOCCO)cc21 [Selumetinib] (first compound max 10 µM, 7x7, partner max 10 µM) |  |  | 0.995 |  | 0.46 |  |  |  |  | 0.871 | 0.267 | 0.224 |  |  | 0.664 | 0.57 | 0.742 |  |  | 
O=C(c1cc(Cc2n[nH]c(=O)c3ccccc23)ccc1F)N1CCN(C(=O)C2CC2)CC1 [Olaparib] + CC1(C)CCC(CN2CCN(c3ccc(C(=O)NS(=O)(=O)c4ccc(NCC5CCOCC5)c([N+](=O)[O-])c4)c(Oc4cnc5[nH]ccc5c4)c3)CC2)=C(c2ccc(Cl)cc2)C1 [Venetoclax] (first compound max 10 µM, 7x7, partner max 1 µM) |  |  | 0.145 |  | 0.119 |  |  |  |  | 0.305 | 0.297 | 0.293 |  |  | 0.174 | 0.134 | 0.383 |  |  | 
CN(CCO)CC[C@H](CSc1ccccc1)Nc1ccc(S(=O)(=O)NC(=O)c2ccc(N3CCC([C@@H](O)c4ccccc4-c4ccc(Cl)cc4)CC3)cc2)cc1S(=O)(=O)C(F)(F)F [AZD4320] + C[C@@H]1COCCN1C2=NC(=NC(=C2)C3(CC3)[S@](=N)(=O)C)C4=C5C=CNC5=NC=C4 [AZD6738] (first compound max 1 µM, 7x7, partner max 10 µM) | 0.978 | 0.494 | 0.787 | 0.359 | 0.918 | 0.764 | 0.876 | 0.797 | 1 | 0.853 | 0.474 | 0.819 | 0.981 | 0.481 | 0.543 | 0.868 |  | 1 | 1 | 1
